In patent US11505556B2, “Halogenated derivatives of morphinans and uses thereof” (Xalud Therapeutics, Inc., priority 2017, dated 2022):
Where two headings read alike, the source gives them in different places.

How the values were obtained:
[1] = test system: TLR4 (LPS-stimulated NO production, BV-2 mouse microglia cell line); assay: NO assay: inhibition of LPS-induced NO production in BV-2 microglia (iNOS cellular); format: cell-based; conditions: Mus musculus
Excerpt: NO assay: Microglia are the resident cells of the innate immune system in the central nervous system, and TLR4 is primarily expressed by microglia rather than astrocytes or neurons in the CNS. Given this expression profile, the BV-2 mouse microglia cell line was used as the model system of microglia, as these cells recapitulate many of the responses of primary microglia with high fidelity. TLR4 activation induces the downstream production of the inflammatory factor NO, which contributes to the development of neuropathic pain and drug addiction. BV-2 murine microglia were grown in supplemented DMEM (including 10% FBS, 50 unit mL^−1 penicillin, 50 μg·mL^−1 streptomycin). BV-2 cells were detached from the flask by trypsin digestion when ˜80% confluence was reached. Cells were seeded at a density of 4×10^4 cells per well in 96-well plates. After overnight incubation, media was aspirated and changed to DMEM media without FBS. Cells were then treated with LPS (200 ng/ml) and different concentrations of the testing compounds. After 24 h treatment, 100 μL of supernatant media was removed after cells were treated for 24 h and added to flat black 96-well microfluor plates (Thermo Scientific, MA, USA). Subsequently, 10 μL of 2, 3-diaminonaphthalene (0.05 mg·mL^−1 in 0.62 M HCl) was added to each well and incubated for 15 min. The reaction was quenched by addition of 5 μL of 3 M NaOH and the plate was read on a Beckman Coulter DTX880 reader (Fullerton, Calif., USA) with excitation at 360 nm and emission at 430 nm.
N chain NTX: This experimentation involved an in vitro assay where mouse BV2 cells were treated with LPS, which results in the release of nitric oxide (NO). Blockade of TLR4 activity results in reduced NO production. Therefore, IC50 values were determined for test compounds that antagonize TLR4 activity. A series of test compounds were prepared, with different N-alkyl chains replacing the cyclopropyl methyl found in naltrexone. Cell viability was also measured by a standard assay, e.g., measurement of the release of cytoplasm-resident enzymes in the tissue culture supernatant or media to detect cell loss/lysis/rupture. A dose-inhibition curve was generated by testing the TLR4 antagonist compound for the ability to block LPS-stimulated iNOs induction. In FIG. 7, the inhibition levels across a range of doses are graphed, along with a regression curve. The IC50 value—50% inhibition level—is also provided, graphed against the length of the alkyl chain. Note that with longer N-alkyl chain the IC50 was reduced, although cell viability became problematic.
FIGS. 8B to 8D show the results of the inhibition of NO production from LPS-stimulated BV2 cells using the assay described above.

[2] = molecular target: hERG (Homo sapiens, UniProt Q12809); assay: hERG inhibition
Chain of hERG (Q12809 whole entry): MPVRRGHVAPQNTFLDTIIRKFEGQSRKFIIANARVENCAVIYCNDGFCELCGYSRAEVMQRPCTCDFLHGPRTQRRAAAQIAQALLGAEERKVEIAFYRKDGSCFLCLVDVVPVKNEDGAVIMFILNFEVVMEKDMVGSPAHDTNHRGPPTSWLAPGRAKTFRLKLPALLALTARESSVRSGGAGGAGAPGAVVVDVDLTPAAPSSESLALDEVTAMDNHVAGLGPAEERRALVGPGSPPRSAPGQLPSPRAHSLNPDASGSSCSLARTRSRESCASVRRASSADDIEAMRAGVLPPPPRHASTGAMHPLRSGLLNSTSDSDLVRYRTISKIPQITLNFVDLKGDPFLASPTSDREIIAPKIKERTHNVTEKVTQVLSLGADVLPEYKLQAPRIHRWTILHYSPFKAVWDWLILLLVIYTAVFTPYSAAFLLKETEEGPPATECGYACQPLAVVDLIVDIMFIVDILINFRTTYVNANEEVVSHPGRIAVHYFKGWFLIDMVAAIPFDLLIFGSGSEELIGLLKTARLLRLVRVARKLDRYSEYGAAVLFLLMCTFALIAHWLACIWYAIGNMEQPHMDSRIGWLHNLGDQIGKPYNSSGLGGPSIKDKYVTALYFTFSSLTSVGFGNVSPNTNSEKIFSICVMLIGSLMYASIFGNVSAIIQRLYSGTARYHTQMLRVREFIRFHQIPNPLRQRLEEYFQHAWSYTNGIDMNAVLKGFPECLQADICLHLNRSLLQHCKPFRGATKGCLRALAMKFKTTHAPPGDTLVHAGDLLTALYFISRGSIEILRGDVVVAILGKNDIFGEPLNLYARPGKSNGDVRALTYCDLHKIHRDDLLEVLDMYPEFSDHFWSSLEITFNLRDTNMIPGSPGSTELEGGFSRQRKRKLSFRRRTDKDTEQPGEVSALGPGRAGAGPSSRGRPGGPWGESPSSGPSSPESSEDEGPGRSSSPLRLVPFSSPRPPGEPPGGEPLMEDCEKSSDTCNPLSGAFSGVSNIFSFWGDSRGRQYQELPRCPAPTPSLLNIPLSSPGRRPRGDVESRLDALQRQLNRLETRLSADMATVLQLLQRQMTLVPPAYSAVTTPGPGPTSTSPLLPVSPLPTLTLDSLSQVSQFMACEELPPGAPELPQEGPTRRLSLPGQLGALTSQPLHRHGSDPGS

[3] = test system: off-target screening panel; assay: Off-target inhibition screening (whole panel); conditions: 10 μM test concentration; hit = inhibition at or above the 50% level
Excerpt: (§1) In addition to the animal studies presented above in Examples 1-9, the results of in vitro testing of several of the compounds (i.e., XT-203, XT-204, and XT-206 through XT-217) are shown in Table 5 and Table 6. […]. Nine additional compounds had two or fewer off-target hits in the screening. […] These compounds spanned all of the tested N-modification classes. […]. Thus, the medicinal chemistry approach taken in this series of fluorinated compounds can yield low off-target activity and longer metabolic lifetime while preserving TLR4 antagonism. It is appreciated that further development of compounds in this class, using techniques known to those skilled in the art, may yield additional compounds with desirable pharmacologic and toxicologic characteristics.

[4] = in vitro; conditions: mouse, hepatocytes
[5] = in vitro; conditions: rat, cultured hepatocytes
[6] = in vitro; conditions: dog, cultured hepatocytes
[7] = in vitro; conditions: monkey, cultured hepatocytes
[8] = in vitro; conditions: human, cultured hepatocytes
[9] = test system: Human hepatocytes; assay: Hepatocyte elimination of parent compound; conditions: cultured hepatocytes
[10] = molecular target: iNOS (Homo sapiens, UniProt P35228); assay: iNOS enzyme inhibition; format: biochemical
Chain of iNOS (P35228 whole entry): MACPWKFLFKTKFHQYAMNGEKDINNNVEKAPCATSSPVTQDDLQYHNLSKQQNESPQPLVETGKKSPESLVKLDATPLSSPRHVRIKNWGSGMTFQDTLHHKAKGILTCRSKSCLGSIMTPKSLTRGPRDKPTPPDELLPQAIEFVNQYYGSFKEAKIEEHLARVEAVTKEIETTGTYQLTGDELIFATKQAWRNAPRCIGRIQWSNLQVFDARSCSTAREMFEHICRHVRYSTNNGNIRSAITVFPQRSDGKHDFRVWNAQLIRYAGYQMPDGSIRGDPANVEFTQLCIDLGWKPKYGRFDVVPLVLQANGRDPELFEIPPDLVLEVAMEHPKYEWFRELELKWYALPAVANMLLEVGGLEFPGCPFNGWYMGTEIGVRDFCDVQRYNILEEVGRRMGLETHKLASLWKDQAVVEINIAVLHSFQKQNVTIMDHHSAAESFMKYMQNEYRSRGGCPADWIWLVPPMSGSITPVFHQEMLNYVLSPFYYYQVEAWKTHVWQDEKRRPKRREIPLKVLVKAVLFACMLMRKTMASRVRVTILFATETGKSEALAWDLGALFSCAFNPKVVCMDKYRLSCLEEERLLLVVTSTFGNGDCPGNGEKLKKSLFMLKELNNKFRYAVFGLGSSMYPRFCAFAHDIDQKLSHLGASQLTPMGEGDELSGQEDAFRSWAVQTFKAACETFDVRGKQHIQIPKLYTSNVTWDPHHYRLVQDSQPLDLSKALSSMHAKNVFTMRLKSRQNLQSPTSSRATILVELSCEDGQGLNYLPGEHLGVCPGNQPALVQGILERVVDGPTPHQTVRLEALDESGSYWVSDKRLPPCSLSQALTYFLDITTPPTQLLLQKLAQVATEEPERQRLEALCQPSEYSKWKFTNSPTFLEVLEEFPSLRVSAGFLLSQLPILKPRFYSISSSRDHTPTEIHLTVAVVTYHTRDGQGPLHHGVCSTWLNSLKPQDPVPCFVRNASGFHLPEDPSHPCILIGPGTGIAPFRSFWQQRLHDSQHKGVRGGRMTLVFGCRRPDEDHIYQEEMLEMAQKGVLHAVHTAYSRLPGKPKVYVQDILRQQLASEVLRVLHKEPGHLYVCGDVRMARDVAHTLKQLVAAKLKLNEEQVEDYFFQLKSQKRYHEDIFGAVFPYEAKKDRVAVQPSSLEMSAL

[11] = molecular target: Adenosine A2A (Homo sapiens, UniProt P29274); assay: Off-target screening; format: binding
Chain of Adenosine A2A (P29274 whole entry): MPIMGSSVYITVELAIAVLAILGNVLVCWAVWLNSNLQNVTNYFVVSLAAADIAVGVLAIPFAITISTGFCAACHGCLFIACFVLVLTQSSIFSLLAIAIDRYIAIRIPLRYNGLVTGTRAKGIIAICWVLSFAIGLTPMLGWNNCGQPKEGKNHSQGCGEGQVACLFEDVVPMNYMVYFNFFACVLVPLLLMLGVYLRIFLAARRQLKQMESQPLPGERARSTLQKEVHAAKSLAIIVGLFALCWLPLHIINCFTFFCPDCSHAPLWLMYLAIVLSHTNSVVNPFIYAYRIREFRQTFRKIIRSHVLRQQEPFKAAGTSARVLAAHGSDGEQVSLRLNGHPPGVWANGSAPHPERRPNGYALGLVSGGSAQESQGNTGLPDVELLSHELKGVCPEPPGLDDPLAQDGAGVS
Excerpt: as §1

[12] = molecular target: Cannabinoid CB1 (Homo sapiens, UniProt P21554); assay: Off-target screening; format: binding
Chain of Cannabinoid CB1 (P21554 whole entry): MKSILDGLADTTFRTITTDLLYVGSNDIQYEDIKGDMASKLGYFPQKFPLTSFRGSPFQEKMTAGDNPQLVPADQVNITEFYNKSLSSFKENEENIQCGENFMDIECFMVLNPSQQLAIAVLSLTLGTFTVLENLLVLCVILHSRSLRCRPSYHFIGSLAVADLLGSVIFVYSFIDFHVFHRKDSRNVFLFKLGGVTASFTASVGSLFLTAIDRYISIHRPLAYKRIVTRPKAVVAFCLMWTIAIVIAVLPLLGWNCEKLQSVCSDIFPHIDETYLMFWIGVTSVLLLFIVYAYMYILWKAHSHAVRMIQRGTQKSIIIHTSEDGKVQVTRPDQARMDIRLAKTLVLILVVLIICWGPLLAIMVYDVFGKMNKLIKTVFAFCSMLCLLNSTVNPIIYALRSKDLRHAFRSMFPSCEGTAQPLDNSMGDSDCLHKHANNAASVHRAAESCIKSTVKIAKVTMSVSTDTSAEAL
Excerpt: as §1

[13] = Hepatocyte elimination of parent compound, spread across species; format: in vitro ADME; conditions: mouse, rat, dog, monkey, human, hepatocytes; lowest to highest species value; read-out: range of hepatocyte elimination half-life values across species
Description: Hepatocyte Elimination: (+)-NTX, AK-17 and XT-203 were incubated with cultured hepatocytes from the species listed in FIG. 9 and Table 4, and samples of the culture supernatant were collected over time. Samples were concentrated by nitrogen drying followed by reconstitution with 40% methanol for LC/MS analysis The data points were analyzed using the WinNonLin pharmacokinetics software package, and a half-life was determined that describes the rate of parent elimination. […].
as §1

[14] = molecular target: T1, Adrenergic α2A (Homo sapiens, UniProt P08913); assay: Off-target screening; format: binding; conditions: 10 μM
T1 sequence (P08913 1-465): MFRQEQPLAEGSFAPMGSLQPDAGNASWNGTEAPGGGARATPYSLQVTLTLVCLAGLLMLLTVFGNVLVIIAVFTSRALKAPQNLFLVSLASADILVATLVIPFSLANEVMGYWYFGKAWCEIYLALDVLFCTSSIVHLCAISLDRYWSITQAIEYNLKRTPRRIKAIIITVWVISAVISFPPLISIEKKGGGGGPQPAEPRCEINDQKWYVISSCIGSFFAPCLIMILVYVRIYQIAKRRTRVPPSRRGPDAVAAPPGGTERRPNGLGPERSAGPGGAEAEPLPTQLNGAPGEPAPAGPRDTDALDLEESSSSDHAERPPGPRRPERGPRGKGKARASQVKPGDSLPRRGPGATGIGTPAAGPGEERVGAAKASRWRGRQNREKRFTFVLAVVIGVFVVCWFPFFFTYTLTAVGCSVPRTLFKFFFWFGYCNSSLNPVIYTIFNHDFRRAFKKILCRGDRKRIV
Excerpt: as §1

[15] = test system: bone fracture pain, paw withdrawal threshold; assay: Mouse bone fracture model, intraperitoneal; format: in vivo
Excerpt: Each group had n=10 mice.

[16] = test system: surgical pain (paw incision), paw withdrawal threshold; assay: Mouse paw incision model, morphine potentiation
Description: Manual testing with von Frey hairs was performed at the times indicated in the graphs. The animals were placed in individual Perspex boxes on a raised metal mesh for at least 40 min before the test. A series of graduated von Frey hairs (0.07, 0.16, 0.4, 0.6, and 1.0 g) were applied to the plantar surface of the left paw, in sequence. Each von Frey hair was applied 10 times on a one-sec-on-one-sec-off protocol, with each hair slightly bent. A paw withdrawal upon this hind-paw stimulation for a given von Frey hair registering 5 responses out of 10 trials was recorded the paw withdrawal threshold (PWT). A baseline PWT was determined each day for 3 days before surgery. […] In addition, the PWT was determined before dosing and 1, 2, and 4 hours after dosing.
In both cases, morphine was dosed at 1 mg/kg IP.

[17] = test system: CCI neuropathic pain (mechanical allodynia); assay: Rat CCI model, oral and subcutaneous phases (Study R042); format: in vivo; conditions: gabapentin 200 mg/kg
Description: Rat chronic constriction injury model-Oral and subcutaneous (+)-NTX and XT-203: An efficacy study was conducted in the rat chronic constriction injury (CCI) model (Study R042). The study design comprised two phases. A five-day period of oral (PO) dosing and behavioral testing was followed by a five-day period of subcutaneous (SC) dosing, with a two-day washout period between these periods. Dosing on each day was performed three times a day (TID). Behavioral testing for mechanical allodynia was performed on the first and fifth days of dosing, at three times on those days: before the first dose of the day, 30 minutes after the first dose of the day, and 30 minutes after the second dose of the day. Thus, day 5 testing is designated as pre5.1 (before the first dose of the day), 5.1 (fifth day, after first dose) or 5.2 (fifth day, after second dose). On day 5 of the subcutaneous dosing phase, a second testing period was introduced 60 minutes after the second dose. (+)-NTX (6, 18, and 60 mg/kg) and XT-203. Mechanical allodynia was tested manually, using the Chaplan up-down testing method. The results are shown in FIGS. 10A and 10B, with the oral (PO) phase presented as the first pair of graphs. After the two-day washout, the subcutaneous (SC) phase was carried out with the results shown in the graphs at FIGS. 10C and 10D.
The CCI model was well established in this study, with allodynic response thresholds between 2 and 3 grams (presurgical baseline thresholds at 15 g, not shown). […] This is especially remarkable given the extremely rapid metabolism and pharmacokinetics of (+)-NTX (see FIG. 9). Here, the dampening of efficacy due to lack of significant amounts of parent compound is particularly evident. Thus, the appropriate dose-ranging conditions in animal models should reflect (+)-NTX serum levels during efficacy testing, to match pharmacokinetics with pharmacodynamics. […] Efficacy is only observed after the first dose on day 5. Thus, changes designed to improve compound stability do provide improved efficacy.

[18] = Microglia, Table 6, unit inferred, footnote: Indicator of TL4 antagonism
[19] = LPS (200 ng/ml), 24 h, BV-2 cells, Table 3
[20] = read-out: iNOS enzyme, Table 6, unit inferred

COc1ccc2c3c1O[C@@H]1C(F)CCC4[C@H](C2)N(S(=O)(=O)C2CC2)CC[C@]341 (some centres unmarked) [XT-212]
IC50 [1, 18]: > 10 µM
IC50 [1, 19]: > 10 µM
IC50 [2]: > 10 µM
off-target hits in the screening [3]: no off-target hits and none
half-life [4]: 19.8 min
half-life [5]: 14.4 min
half-life [6]: 86.4 min
half-life [7]: 21.2 min
half-life [8]: 61.2 min
parent duration in human hepatocytes relative to XT-203 [9]: longer parent duration than XT-203

COc1ccc2c3c1O[C@@H]1C(F)CCC4[C@H](C2)N(C(=O)Cc2ccccc2)CC[C@]341 (some centres unmarked) [XT-211]
IC50 [1, 18]: > 10 µM
IC50 [1, 19]: > 10 µM
IC50 [2]: > 10 µM
off-target hits in the screening [3]: no off-target hits and none
half-life [4]: 19 min
half-life [5]: 11.9 min
half-life [6]: 19.1 min
half-life [7]: 12.9 min
half-life [8]: 32.5 min

COc1ccc2c3c1O[C@@H]1C(F)CCC4[C@H](C2)N(C(=O)c2ccccc2)CC[C@]341 (some centres unmarked) [XT-207]
IC50 [1, 18]: > 10 µM
IC50 [1, 19]: > 10 µM
IC50 [10]: > 10 µM
IC50 [10, 20]: > 10 µM
IC50 [2]: > 10 µM
off-target hits in the screening [3]: no off-target hits and none
half-life [4]: 22.4 min
half-life [5]: 11.6 min
half-life [6]: 39.8 min
half-life [7]: 12.4 min
half-life [8]: 37.4 min

COc1ccc2c3c1O[C@@H]1C(F)CCC4[C@H](C2)N(S(=O)(=O)c2ccccc2)CC[C@]341 (some centres unmarked) [XT-208]
IC50 [1, 18]: > 10 µM
IC50 [1, 19]: > 10 µM
IC50 [10]: > 10 µM
IC50 [10, 20]: > 10 µM
IC50 [2]: > 10 µM
off-target hits in the screening [3]: two off-target hits
inhibition at 10 µM [11]: 64%
inhibition at 10 µM [12]: 54%
half-life [13]: 8.7 to 19.7 min
half-life [4]: 10.9 min
half-life [5]: 12.7 min
half-life [6]: 14.6 min
half-life [7]: 8.7 min
half-life [8]: 19.7 min

COc1ccc2c3c1O[C@@H]1C(F)CCC4[C@H](C2)N(C2CC2)CC[C@]341 (some centres unmarked) [XT-214]
IC50 [1, 18]: > 10 µM
IC50 [1, 19]: > 10 µM
IC50 [2]: > 10 µM
off-target hits in the screening [3]: one off-target hit
inhibition at 10 µM [14]: 51%
half-life [4]: 18.7 min
half-life [5]: 11.8 min
half-life [6]: 37.7 min
half-life [7]: 14.1 min
half-life [8]: 52.9 min

COc1ccc2c3c1O[C@@H]1C(F)CCC4[C@H](C2)N(C(=O)C2CC2)CC[C@]341 (some centres unmarked) [XT-206]
IC50 [1, 18]: > 10 µM
IC50 [1, 19]: > 10 µM
IC50 [10]: > 10 µM
IC50 [10, 20]: > 10 µM
IC50 [2]: > 10 µM
off-target hits in the screening [3]: no off-target hits and none
half-life [13]: 14.4 to 120 min
half-life [4]: 18.3 min
half-life [5]: 14.4 min
half-life [6]: 80.8 min
half-life [7]: 15.5 min
half-life [8]: 120 min
parent duration in human hepatocytes relative to XT-203 [9]: longer parent duration than XT-203

COc1ccc2c3c1O[C@@H]1C(F)CCC4[C@H](C2)N(S(=O)(=O)Cc2ccccc2)CC[C@]341 (some centres unmarked) [XT-217]
IC50 [1, 18]: > 10 µM
IC50 [1, 19]: > 10 µM
IC50 [2]: > 10 µM
off-target hits in the screening [3]: two off-target hits
inhibition at 10 µM [11]: 61%
inhibition at 10 µM [12]: 56%
half-life [13]: 9.2 to 14.1 min
half-life [4]: 12.6 min
half-life [5]: 10.2 min
half-life [6]: 9.7 min
half-life [7]: 9.2 min
half-life [8]: 14.1 min

CN1CC[C@]23c4c5ccc(O)c4O[C@H]2[C@@H](O)C=C[C@H]3[C@H]1C5 [Morphine, morphine]
effect on PWT in mouse fracture pain model ([15]; IP, morphine 1, 2, 3, 5 mg/kg, XT-203 6, 10, 18, 30 mg/kg, (+)-NTX 6, 18, 30, 60 mg/kg, dose-dependent): increased the PWT
behaviour observed at 5 mg/kg ([15]; mouse fracture model, 5 mg/kg IP, 1 hour after dosing, gone from two hours onward): some mice showing walking anti-clockwise
PWT, 2 hours after dosing ([16]; morphine 1 mg/kg IP alone): 0.11 ± 0.033 g
PWT, 4 hours after dosing ([16]; morphine 1 mg/kg IP alone): 0.10 ± 0.014 g
PWT, 1 hour after dosing ([16]; morphine 1 mg/kg IP alone, baseline 0.11±0.015 g): 0.20 ± 0.046 g
adverse effects during observation ([16]; morphine dose groups): No significant adverse effects

NCC1(CC(=O)O)CCCCC1 [gabapentin, reference compound]
reversal of mechanical allodynia, positive control [17]: reversals of allodynia
